From ChEMBL document CHEMBL5352495, “Development of novel pyrazole, imidazo[1,2-b]pyrazole, and pyrazolo[1,5-a]pyrimidine derivatives as a new class of COX-2 inhibitors with immunomodulatory potential” (Eur J Med Chem, 2023)

How the values were obtained:
[1] = biological target: T1, Prostaglandin G/H synthase 2 (Homo sapiens, UniProt P35354)
T1 sequence (P35354 whole entry): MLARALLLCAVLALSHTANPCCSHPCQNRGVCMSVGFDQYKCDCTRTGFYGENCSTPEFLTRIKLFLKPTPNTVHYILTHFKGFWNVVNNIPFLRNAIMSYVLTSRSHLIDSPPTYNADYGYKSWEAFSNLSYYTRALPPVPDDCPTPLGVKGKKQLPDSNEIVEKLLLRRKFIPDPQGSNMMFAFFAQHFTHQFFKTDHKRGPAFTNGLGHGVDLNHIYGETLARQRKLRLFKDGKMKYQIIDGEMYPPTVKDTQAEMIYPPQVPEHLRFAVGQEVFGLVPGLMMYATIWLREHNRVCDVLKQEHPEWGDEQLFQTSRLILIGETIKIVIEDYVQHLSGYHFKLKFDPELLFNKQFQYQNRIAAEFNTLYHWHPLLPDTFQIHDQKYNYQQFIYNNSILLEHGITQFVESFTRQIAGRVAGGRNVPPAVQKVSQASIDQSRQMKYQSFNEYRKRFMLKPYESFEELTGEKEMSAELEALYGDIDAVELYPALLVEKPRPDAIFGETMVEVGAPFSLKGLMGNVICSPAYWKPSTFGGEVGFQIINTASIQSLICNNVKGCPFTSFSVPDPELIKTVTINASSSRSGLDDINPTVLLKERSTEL
Description: Inhibition of COX-2 (unknown origin) incubated for 5 to 10 mins by fluorometric analysis

RAW264.7 [2] = test: Anti-inflammatory activity against LPS-stimulated mouse RAW264.7 cells assessed as inhibition of TNF alpha expression at 10 ug by qRT-PCR analysis relative to control; assay type: functional; parameters: scale not given: the % may be the effect or the level left; conditions: dose 10 µg
RAW264.7 [3] = test: Anti-inflammatory activity against LPS-stimulated mouse RAW264.7 cells assessed as inhibition of IL-6 expression at 10 ug by qRT-PCR analysis relative to control; assay type: functional; parameters: scale not given: the % may be the effect or the level left; conditions: dose 10 µg

Row | IC50 [1] [µM] | SMILES | Activity (RAW264.7 [2]) [%] | Activity (RAW264.7 [3]) [%]
1 | 79.3 | CCOC(=O)C1=Nc2c(/N=N/c3ccc(O)cc3)c(N)nn2C1=O | – | –
2 | 15.9 | CC(=O)Nc1nn2c(NC(C)=O)cc(=O)[nH]c2c1/N=N/c1ccc(O)cc1 | – | –
3 | 21.1 | COc1ccc(-c2nc3c(/N=N/c4ccc(O)cc4)c(N)nn3c(N)c2C#N)cc1 | – | –
4 | 67.5 | COC(=O)c1cc(=O)n2nc(N)c(/N=N/c3ccc(O)cc3)c2[nH]1 | – | –
5 | 3.37 | Nc1nn2c(-c3cccs3)cc(-c3cccs3)nc2c1/N=N/c1ccc(O)cc1 | 59.2 | 70.3
6 | 295 | CC1=Nc2c(/N=N/c3ccc(O)cc3)c(N)nn2C1=O | – | –
7 | 125 | CCOC(=O)CC(=O)Nc1[nH]nc(N)c1/N=N/c1ccc(O)cc1 | – | –
8 | 46.3 | Cc1cc(C)n2nc(N)c(/N=N/c3ccc(O)cc3)c2n1 | – | –
9 | 36.5 | Nc1n[nH]c(/N=C2/C(=O)Nc3ccc(S(=O)(=O)N4CCCC4)cc32)c1/N=N/c1ccc(O)cc1 | – | –
10 | 61.4 | Nc1n[nH]c(N=c2c(=O)c3ccccc3c2=O)c1/N=N/c1ccc(O)cc1 | – | –
11 | 84.8 | N#Cc1c(-c2ccccc2Cl)nc2c(/N=N/c3ccc(O)cc3)c(N)nn2c1N | – | –
12 | 5.68 | Cc1cc(=O)n2nc(N)c(/N=N/c3ccc(O)cc3)c2[nH]1 | 63.1 | 65.8
13 | – | Cc1ccc(-c2cc(C(F)(F)F)nn2-c2ccc(S(N)(=O)=O)cc2)cc1 [CELECOXIB] | 72.7 | 76.8
